Laboratory results taken from PubChem BioAssay (NCI).
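96-well plates; 48 h exposure; 5 concentrations. Endpoints by linear interpolation between flanking doses. Not reached: highest tested concentration assigned. At the TGI there is no net growth.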

Experiments:
Test in all cases: inhibition of tumour cell growth, NCI panel, 48 h
786-0 renal = test system: 786-0 renal
A498 renal = test system: A498 renal
A549 NSCLC = test system: A549 NSCLC
ACHN renal = test system: ACHN renal
BT-549 breast = test system: BT-549 breast
CAKI-1 renal = test system: CAKI-1 renal
CCRF-CEM leukemia = test system: CCRF-CEM leukemia
COLO 205 colon = test system: COLO 205 colon
DU-145 prostate = test system: DU-145 prostate
EKVX NSCLC = test system: EKVX NSCLC
HCC-2998 colon = test system: HCC-2998 colon
HCT-116 colon = test system: HCT-116 colon
HCT-15 colon = test system: HCT-15 colon
HL-60(TB) leukemia = test system: HL-60(TB) leukemia
HOP-62 NSCLC = test system: HOP-62 NSCLC
HOP-92 NSCLC = test system: HOP-92 NSCLC
IGROV1 ovarian = test system: IGROV1 ovarian
K-562 leukemia = test system: K-562 leukemia
KM12 colon = test system: KM12 colon
LOX IMVI melanoma = test system: LOX IMVI melanoma
M14 melanoma = test system: M14 melanoma
MCF7 breast = test system: MCF7 breast
MDA-MB-435 = test system: MDA-MB-435
MDA-N = test system: MDA-N
MOLT-4 leukemia = test system: MOLT-4 leukemia
NCI-H226 lung = test system: NCI-H226 lung
NCI-H23 lung = test system: NCI-H23 lung
NCI-H460 lung = test system: NCI-H460 lung
NCI/ADR-RES ovarian = test system: NCI/ADR-RES ovarian
OVCAR-3 ovarian = test system: OVCAR-3 ovarian
OVCAR-4 ovarian = test system: OVCAR-4 ovarian
OVCAR-5 ovarian = test system: OVCAR-5 ovarian
OVCAR-8 ovarian = test system: OVCAR-8 ovarian
PC-3 prostate = test system: PC-3 prostate
RPMI-8226 leukemia = test system: RPMI-8226 leukemia
RXF 393 renal = test system: RXF 393 renal
SF-295 CNS = test system: SF-295 CNS
SK-MEL-2 melanoma = test system: SK-MEL-2 melanoma
SK-MEL-28 melanoma = test system: SK-MEL-28 melanoma
SK-MEL-5 melanoma = test system: SK-MEL-5 melanoma
SK-OV-3 ovarian = test system: SK-OV-3 ovarian
SN12C renal = test system: SN12C renal
SNB-19 CNS = test system: SNB-19 CNS
SNB-75 CNS = test system: SNB-75 CNS
SR leukemia = test system: SR leukemia
SW-620 colon = test system: SW-620 colon
T-47D breast = test system: T-47D breast
TK-10 renal = test system: TK-10 renal
U251 CNS = test system: U251 CNS
UACC-257 melanoma = test system: UACC-257 melanoma
UACC-62 melanoma = test system: UACC-62 melanoma
UO-31 renal = test system: UO-31 renal
HS 578T breast = test system: HS 578T breast
HT29 colon = test system: HT29 colon
MALME-3M melanoma = test system: MALME-3M melanoma
MDA-MB-231 breast = test system: MDA-MB-231 breast
NCI-H522 lung = test system: NCI-H522 lung
SF-268 CNS = test system: SF-268 CNS
SF-539 CNS = test system: SF-539 CNS

Measured: TGI

COC(CO[Si](C)(C)N[Si](C)(C)OCC(OC)c1ccccc1)c1ccccc1 (configuration not stated)
> 100 µM: 786-0 renal | A498 renal | A549 NSCLC | ACHN renal | BT-549 breast | CAKI-1 renal | CCRF-CEM leukemia | COLO 205 colon | DU-145 prostate | EKVX NSCLC | HCC-2998 colon | HCT-116 colon | HCT-15 colon | HL-60(TB) leukemia | HOP-62 NSCLC | HOP-92 NSCLC | IGROV1 ovarian | K-562 leukemia | KM12 colon | LOX IMVI melanoma | M14 melanoma | MCF7 breast | MDA-MB-435 | MDA-N | MOLT-4 leukemia | NCI-H226 lung | NCI-H23 lung | NCI-H460 lung | NCI/ADR-RES ovarian | OVCAR-3 ovarian | OVCAR-4 ovarian | OVCAR-5 ovarian | OVCAR-8 ovarian | PC-3 prostate | RPMI-8226 leukemia | RXF 393 renal | SF-295 CNS | SK-MEL-2 melanoma | SK-MEL-28 melanoma | SK-MEL-5 melanoma | SK-OV-3 ovarian | SN12C renal | SNB-19 CNS | SNB-75 CNS | SR leukemia | SW-620 colon | T-47D breast | TK-10 renal | U251 CNS | UACC-257 melanoma | UACC-62 melanoma | UO-31 renal

CCNc1nc2ccccc2nc1NCC
> 100 µM: 786-0 renal | A498 renal | A549 NSCLC | ACHN renal | BT-549 breast | CAKI-1 renal | CCRF-CEM leukemia | COLO 205 colon | DU-145 prostate | EKVX NSCLC | HCC-2998 colon | HCT-116 colon | HCT-15 colon | HL-60(TB) leukemia | HS 578T breast | HT29 colon | IGROV1 ovarian | K-562 leukemia | KM12 colon | LOX IMVI melanoma | M14 melanoma | MALME-3M melanoma | MCF7 breast | MDA-MB-231 breast | MDA-MB-435 | MDA-N | MOLT-4 leukemia | NCI-H226 lung | NCI-H23 lung | NCI-H460 lung | NCI-H522 lung | NCI/ADR-RES ovarian | OVCAR-3 ovarian | OVCAR-5 ovarian | OVCAR-8 ovarian | PC-3 prostate | RPMI-8226 leukemia | RXF 393 renal | SF-268 CNS | SF-295 CNS | SF-539 CNS | SK-MEL-2 melanoma | SK-MEL-28 melanoma | SK-MEL-5 melanoma | SK-OV-3 ovarian | SN12C renal | SNB-19 CNS | SNB-75 CNS | SR leukemia | SW-620 colon | TK-10 renal | U251 CNS | UACC-257 melanoma | UACC-62 melanoma | UO-31 renal
